Measured values published in ChEMBL document CHEMBL5291721, “A preclinical secondary pharmacology resource illuminates target-adverse drug reaction associations of marketed drugs” (Nat Commun, 2023).

Columns and labels:
[1] = biological target: T1, Gamma-aminobutyric acid receptor subunit alpha-1/alpha-2/beta-2/gamma-2 (Homo sapiens, UniProt P14867+P47870+P18507+P47869); format: protein-complex assay
[2] = biological target: T1, Gamma-aminobutyric acid receptor subunit alpha-1/alpha-2/beta-2/gamma-2; format: functional, cell-based
[3] = biological target: Voltage-dependent L-type calcium channel subunit alpha-1C (Homo sapiens, UniProt Q13936); format: functional, cell-based
[4] = biological target: T2, Thromboxane A2 receptor (Homo sapiens, UniProt P21731); format: functional, cell-based
T2 sequence (P21731 whole entry): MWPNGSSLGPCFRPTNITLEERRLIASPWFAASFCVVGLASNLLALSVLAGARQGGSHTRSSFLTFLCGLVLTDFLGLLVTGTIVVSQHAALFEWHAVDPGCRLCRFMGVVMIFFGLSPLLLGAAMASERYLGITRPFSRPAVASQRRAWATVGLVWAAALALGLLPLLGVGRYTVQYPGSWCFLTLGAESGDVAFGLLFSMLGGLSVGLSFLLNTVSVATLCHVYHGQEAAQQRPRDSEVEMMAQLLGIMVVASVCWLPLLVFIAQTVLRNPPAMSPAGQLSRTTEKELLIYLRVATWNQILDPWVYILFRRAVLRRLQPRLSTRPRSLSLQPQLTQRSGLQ

[5] = biological target: T1, Gamma-aminobutyric acid receptor subunit alpha-1/alpha-2/beta-2/gamma-2; format: functional, cell-based; remark: listed apart in the source
[6] = biological target: T3, Peroxisome proliferator-activated receptor gamma (Homo sapiens, UniProt P37231); format: functional
T3 sequence (P37231 whole entry): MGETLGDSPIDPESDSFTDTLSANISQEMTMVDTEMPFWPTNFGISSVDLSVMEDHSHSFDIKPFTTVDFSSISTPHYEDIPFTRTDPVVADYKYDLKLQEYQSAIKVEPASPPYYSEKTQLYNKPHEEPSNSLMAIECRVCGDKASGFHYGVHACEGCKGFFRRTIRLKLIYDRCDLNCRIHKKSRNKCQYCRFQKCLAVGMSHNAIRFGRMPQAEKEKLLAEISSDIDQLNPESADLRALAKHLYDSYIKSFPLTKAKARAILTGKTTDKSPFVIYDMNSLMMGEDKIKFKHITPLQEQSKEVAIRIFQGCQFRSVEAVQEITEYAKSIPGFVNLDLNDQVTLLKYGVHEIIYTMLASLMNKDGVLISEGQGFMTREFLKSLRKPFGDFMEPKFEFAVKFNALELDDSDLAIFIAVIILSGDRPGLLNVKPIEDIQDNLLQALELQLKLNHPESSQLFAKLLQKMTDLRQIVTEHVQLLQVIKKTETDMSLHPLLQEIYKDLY

[7] = biological target: T4, Muscarinic acetylcholine receptor M1 (Homo sapiens, UniProt P11229); format: functional, cell-based
T4 sequence (P11229 whole entry): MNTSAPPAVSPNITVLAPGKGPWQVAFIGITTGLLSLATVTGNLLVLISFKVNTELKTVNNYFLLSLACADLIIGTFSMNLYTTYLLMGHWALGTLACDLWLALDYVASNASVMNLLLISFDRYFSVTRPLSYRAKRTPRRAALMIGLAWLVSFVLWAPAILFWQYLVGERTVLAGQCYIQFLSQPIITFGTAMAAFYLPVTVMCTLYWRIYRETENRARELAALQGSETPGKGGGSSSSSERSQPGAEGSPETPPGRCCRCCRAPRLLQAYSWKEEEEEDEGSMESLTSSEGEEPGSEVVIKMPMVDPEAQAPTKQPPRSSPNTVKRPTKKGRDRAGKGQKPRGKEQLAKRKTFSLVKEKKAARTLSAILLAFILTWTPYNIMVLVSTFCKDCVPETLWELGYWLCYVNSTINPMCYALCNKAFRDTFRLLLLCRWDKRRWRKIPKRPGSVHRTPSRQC

[8] = biological target: Gamma-aminobutyric acid receptor subunit alpha-1/alpha-2/beta-2/gamma-2 (Homo sapiens, UniProt P14867+P18507+P47869+P47870); format: protein-complex assay
Sequence of Gamma-aminobutyric acid receptor subunit alpha-1/alpha-2/beta-2/gamma-2 (Homo sapiens, UniProt P14867+P18507+P47869+P47870) (P14867 whole entry): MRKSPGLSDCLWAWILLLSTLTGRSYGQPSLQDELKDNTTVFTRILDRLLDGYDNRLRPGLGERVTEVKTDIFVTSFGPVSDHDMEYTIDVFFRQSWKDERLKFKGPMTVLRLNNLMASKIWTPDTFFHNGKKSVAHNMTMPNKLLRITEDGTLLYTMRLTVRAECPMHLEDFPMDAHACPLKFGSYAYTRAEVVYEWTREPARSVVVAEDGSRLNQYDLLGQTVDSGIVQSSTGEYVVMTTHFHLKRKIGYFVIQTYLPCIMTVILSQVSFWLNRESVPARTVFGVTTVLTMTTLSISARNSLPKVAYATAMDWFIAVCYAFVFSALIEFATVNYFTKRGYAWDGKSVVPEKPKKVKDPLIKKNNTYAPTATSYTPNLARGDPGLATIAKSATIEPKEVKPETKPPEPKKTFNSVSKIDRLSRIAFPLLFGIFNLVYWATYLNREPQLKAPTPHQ
Sequence of Gamma-aminobutyric acid receptor subunit alpha-1/alpha-2/beta-2/gamma-2 (Homo sapiens, UniProt P14867+P18507+P47869+P47870) (P47870 whole entry): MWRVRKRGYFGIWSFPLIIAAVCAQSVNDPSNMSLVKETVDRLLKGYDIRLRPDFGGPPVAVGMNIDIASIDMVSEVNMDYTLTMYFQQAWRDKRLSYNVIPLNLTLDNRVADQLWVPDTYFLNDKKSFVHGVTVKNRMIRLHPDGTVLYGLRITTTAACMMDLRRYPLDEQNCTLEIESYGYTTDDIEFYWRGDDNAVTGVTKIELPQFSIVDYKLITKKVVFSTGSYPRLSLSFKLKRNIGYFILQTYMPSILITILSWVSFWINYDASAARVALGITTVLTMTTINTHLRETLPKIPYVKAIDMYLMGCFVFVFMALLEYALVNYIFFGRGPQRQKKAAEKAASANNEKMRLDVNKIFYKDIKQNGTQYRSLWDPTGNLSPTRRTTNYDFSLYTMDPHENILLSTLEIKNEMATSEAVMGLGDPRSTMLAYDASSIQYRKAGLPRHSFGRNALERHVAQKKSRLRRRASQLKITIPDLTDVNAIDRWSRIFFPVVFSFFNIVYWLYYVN
Sequence of Gamma-aminobutyric acid receptor subunit alpha-1/alpha-2/beta-2/gamma-2 (Homo sapiens, UniProt P14867+P18507+P47869+P47870) (P18507 whole entry): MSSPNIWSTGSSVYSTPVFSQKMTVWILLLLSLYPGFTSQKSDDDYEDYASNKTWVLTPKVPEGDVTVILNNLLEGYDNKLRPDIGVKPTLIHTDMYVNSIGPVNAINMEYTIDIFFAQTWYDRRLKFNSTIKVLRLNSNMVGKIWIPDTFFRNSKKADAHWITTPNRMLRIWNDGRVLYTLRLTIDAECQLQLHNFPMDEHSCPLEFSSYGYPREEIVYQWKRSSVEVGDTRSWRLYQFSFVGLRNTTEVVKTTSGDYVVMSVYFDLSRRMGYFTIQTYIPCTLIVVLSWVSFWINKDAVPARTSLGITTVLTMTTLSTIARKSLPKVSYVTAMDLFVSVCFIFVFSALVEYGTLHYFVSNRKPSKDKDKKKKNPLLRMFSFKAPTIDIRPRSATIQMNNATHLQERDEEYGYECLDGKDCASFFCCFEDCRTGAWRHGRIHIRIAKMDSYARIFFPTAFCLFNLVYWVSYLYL
Sequence of Gamma-aminobutyric acid receptor subunit alpha-1/alpha-2/beta-2/gamma-2 (Homo sapiens, UniProt P14867+P18507+P47869+P47870) (P47869 whole entry): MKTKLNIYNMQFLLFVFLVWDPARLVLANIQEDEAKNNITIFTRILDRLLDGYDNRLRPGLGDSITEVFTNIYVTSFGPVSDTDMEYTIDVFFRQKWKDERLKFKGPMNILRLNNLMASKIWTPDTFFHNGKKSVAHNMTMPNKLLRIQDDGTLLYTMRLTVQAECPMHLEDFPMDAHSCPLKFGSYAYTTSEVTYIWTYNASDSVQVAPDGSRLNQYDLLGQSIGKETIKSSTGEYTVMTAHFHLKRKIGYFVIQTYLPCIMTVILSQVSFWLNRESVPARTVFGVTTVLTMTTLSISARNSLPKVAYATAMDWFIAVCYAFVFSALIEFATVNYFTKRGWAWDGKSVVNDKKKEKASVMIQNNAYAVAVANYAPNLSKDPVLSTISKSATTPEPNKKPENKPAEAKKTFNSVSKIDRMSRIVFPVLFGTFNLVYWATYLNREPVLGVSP

[9] = biological target: T5, Alpha-2A adrenergic receptor (Homo sapiens, UniProt P08913)
T5 sequence (P08913 whole entry): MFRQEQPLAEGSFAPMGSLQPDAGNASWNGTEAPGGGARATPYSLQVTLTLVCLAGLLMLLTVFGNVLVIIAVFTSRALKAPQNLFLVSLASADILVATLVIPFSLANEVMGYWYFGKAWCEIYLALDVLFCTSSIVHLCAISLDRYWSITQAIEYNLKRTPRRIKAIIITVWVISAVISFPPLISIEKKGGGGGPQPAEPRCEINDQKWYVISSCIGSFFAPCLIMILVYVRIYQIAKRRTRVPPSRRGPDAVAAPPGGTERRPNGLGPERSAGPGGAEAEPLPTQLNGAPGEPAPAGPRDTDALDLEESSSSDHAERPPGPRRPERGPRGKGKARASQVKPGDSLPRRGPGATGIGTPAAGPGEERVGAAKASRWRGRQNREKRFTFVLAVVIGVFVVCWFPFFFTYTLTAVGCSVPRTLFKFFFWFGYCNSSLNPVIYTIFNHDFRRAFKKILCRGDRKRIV

[10] = biological target: T6, 5-hydroxytryptamine receptor 1A (Homo sapiens, UniProt P08908)
T6 sequence (P08908 whole entry): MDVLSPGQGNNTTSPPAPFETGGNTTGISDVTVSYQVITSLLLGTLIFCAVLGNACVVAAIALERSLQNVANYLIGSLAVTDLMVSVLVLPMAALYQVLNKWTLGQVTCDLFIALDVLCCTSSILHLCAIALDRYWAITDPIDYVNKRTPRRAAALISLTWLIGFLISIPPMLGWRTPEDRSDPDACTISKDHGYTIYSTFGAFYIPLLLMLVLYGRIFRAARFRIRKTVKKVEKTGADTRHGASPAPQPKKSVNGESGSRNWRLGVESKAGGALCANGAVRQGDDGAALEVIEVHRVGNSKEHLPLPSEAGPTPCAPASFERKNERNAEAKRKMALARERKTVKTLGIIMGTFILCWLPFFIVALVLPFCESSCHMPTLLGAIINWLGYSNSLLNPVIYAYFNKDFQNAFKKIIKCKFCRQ

[11] = biological target: D(1A) dopamine receptor (Homo sapiens, UniProt P21728); format: functional, cell-based
Sequence of D(1A) dopamine receptor (P21728 whole entry): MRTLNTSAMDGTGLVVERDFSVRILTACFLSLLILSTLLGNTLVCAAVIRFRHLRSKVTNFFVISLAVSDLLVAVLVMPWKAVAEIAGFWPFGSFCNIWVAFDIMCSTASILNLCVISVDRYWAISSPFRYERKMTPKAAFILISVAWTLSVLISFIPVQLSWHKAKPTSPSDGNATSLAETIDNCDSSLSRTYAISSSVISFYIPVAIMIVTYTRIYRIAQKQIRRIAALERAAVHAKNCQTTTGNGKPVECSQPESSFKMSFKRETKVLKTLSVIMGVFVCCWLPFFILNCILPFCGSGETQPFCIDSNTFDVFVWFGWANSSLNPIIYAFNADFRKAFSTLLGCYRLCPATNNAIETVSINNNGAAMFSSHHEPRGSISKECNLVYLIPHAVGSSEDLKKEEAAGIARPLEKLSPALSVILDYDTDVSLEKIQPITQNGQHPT

[12] = biological target: Hydroxycarboxylic acid receptor 2 (Homo sapiens, UniProt Q8TDS4)
Sequence of Hydroxycarboxylic acid receptor 2 (Q8TDS4 whole entry): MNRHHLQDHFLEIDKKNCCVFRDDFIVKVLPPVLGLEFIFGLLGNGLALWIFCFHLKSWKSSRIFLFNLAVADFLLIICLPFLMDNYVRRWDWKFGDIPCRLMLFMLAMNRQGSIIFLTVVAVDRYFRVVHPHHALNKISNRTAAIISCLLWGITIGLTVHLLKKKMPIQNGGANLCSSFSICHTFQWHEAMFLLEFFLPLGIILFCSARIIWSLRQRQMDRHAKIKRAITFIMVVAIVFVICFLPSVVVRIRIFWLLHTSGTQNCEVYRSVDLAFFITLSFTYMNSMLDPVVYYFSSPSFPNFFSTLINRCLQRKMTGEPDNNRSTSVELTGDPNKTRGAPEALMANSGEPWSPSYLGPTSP

[13] = biological target: Histamine H1 receptor (Homo sapiens, UniProt P35367); format: functional, cell-based
Sequence of Histamine H1 receptor (P35367 whole entry): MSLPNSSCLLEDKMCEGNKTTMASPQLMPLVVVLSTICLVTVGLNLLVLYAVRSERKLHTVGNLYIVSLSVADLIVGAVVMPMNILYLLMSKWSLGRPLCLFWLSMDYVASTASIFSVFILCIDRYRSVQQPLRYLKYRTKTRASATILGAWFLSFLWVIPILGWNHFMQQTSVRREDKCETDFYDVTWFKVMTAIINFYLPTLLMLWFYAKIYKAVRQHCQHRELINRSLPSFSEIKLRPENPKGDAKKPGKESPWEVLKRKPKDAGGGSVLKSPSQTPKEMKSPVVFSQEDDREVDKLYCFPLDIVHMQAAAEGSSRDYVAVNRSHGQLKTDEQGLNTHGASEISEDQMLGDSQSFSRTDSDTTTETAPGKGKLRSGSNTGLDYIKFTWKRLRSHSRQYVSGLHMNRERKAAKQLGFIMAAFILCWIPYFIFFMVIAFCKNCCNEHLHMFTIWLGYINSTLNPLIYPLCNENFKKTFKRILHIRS

[14] = biological target: 5-hydroxytryptamine receptor 7 (Homo sapiens, UniProt P34969)
Sequence of 5-hydroxytryptamine receptor 7 (P34969 whole entry): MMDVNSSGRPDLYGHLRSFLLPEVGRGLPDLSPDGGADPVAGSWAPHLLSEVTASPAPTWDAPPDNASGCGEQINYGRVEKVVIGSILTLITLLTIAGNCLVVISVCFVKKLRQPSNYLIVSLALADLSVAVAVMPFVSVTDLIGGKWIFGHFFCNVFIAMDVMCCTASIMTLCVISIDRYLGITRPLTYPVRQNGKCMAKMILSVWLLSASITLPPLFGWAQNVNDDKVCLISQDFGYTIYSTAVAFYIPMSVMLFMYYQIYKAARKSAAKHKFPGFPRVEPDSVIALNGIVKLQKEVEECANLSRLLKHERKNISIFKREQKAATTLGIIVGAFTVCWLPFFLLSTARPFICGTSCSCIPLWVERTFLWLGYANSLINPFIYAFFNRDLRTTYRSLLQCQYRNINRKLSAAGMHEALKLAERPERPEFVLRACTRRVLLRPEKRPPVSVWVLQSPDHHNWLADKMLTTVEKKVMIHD
Also: assay procedure not described here.

T1 sequence (P14867 whole entry): as the sequence (P14867 whole entry) above
T1 sequence (P47870 whole entry): as the sequence (P47870 whole entry) above
T1 sequence (P18507 whole entry): as the sequence (P18507 whole entry) above
T1 sequence (P47869 whole entry): as the sequence (P47869 whole entry) above

THIMEROSAL
AC50 [1]: > 30 µM | AC50 [2]: > 30 µM | AC50 [3]: > 50 µM | AC50 [4]: > 10 µM | AC50 [5]: > 30 µM

Brc1c(NC2=NCCN2)ccc2nccnc12 [BRIMONIDINE]
AC50 [6]: > 30 µM

CO[C@]12C[C@@H](COC(=O)c3cncc(Br)c3)CN(C)[C@@H]1Cc1cn(C)c3cccc2c13 [NICERGOLINE]
AC50 [7]: > 30 µM | AC50 [8]: > 10 µM | AC50 [9]: 0.0426 µM | AC50 [10]: 0.003 µM

Cc1cc(C(C)(C)C)c(O)c(C)c1CC1=NCCN1 [OXYMETAZOLINE]
AC50 [11]: > 30 µM

COc1cccc(C2(O)CCCCC2CN(C)C)c1 (centres undefined) [TRAMADOL]
AC50 [12]: > 10 µM

NC(=O)CN1CC(O)CC1=O (centres undefined) [OXIRACETAM]
AC50 [13]: > 30 µM

Cc1c(OCC(F)(F)F)ccnc1C[S+]([O-])c1nc2ccccc2[nH]1 (centres undefined) [LANSOPRAZOLE]
AC50 [14]: > 10 µM
